Data from paper PMC10112504, “Novel 4-thiophenyl-pyrazole, pyridine, and pyrimidine derivatives as potential antitumor candidates targeting both EGFR and VEGFR-2; design, synthesis, biological evaluations, and in silico studies” (RSC Advances, 2023).

Legend:
EGFR = EGFR (Homo sapiens, UniProt P00533); assay: EGFR inhibitory activity, homogeneous luminescence release assay; type: biochemical; details: reference erlotinib; read-out: EGFR inhibition IC50
C. albicans = assay: Antifungal activity, inhibition zone approach; type: cell-based, Candida albicans; details: for C. albicans Diameter of inhibition zone (mm): Fungi; for antimicrobial activity with C. albicans, in words: authors' grading of Table 2 values, key not given; for C. albicans % Activity index: ketoconazole = 100
B. subtilis = assay: Antibacterial activity, inhibition zone approach; type: cell-based, Bacillus subtilis; details: for B. subtilis Diameter of inhibition zone (mm): Gram-positive bacteria; for antimicrobial activity with B. subtilis, in words: authors' grading of Table 2 values, key not given; for B. subtilis % Activity index: gentamicin = 100
VEGFR-2 = VEGFR-2 (Homo sapiens, UniProt P35968); assay: VEGFR-2 inhibitory activity, homogeneous luminescence release assay; type: biochemical; details: reference sorafenib; read-out: VEGFR-2 inhibition IC50
From the text: […]. Briefly, these μM inhibitory concentrations recommend greatly the proposed rationale design for the investigated compounds to act as promising dual EGFR/VEGFR-2 inhibitors.

A. flavus = assay: Antifungal activity, inhibition zone approach; type: cell-based, Aspergillus flavus; details: for A. flavus Diameter of inhibition zone (mm): Fungi; for antimicrobial activity with A. flavus, in words: authors' grading of Table 2 values, key not given; for A. flavus % Activity index: ketoconazole = 100
HepG-2 [1] = assay: Anti-proliferative activity, SRB colorimetric assay; type: cell-based; details: for IC50: Homo sapiens, HepG2, HepG-2 cancer cell line, SRB assay, read-out: Cell lines (IC50 μM) HepG-2; for anti-proliferative activity against HepG-2, in words: authors' grading of Table 1 values, key not given
S. aureus = assay: Antibacterial activity, inhibition zone approach; type: cell-based, Staphylococcus aureus; details: for S. aureus Diameter of inhibition zone (mm): Gram-positive bacteria; for antimicrobial activity with S. aureus, in words: authors' grading of Table 2 values, key not given; for S. aureus % Activity index: gentamicin = 100
E. coli = assay: Antibacterial activity, inhibition zone approach; type: cell-based, Escherichia coli; details: for E. coli Diameter of inhibition zone (mm): Gram-negative bacteria; for antimicrobial activity with E. coli, in words: authors' grading of Table 2 values, key not given; for E. coli % Activity index: gentamicin = 100
HepG2 = assay: Cell cycle analysis by flow cytometry; type: cell-based; details: HepG2 treated with 10b at 13.81 μM; control 36.19%
P. aeuroginosa = assay: Antibacterial activity, inhibition zone approach; type: cell-based, Pseudomonas aeuroginosa; details: for P. aeuroginosa Diameter of inhibition zone (mm): Gram-negative bacteria; for antimicrobial activity with P. aeuroginosa, in words: authors' grading of Table 2 values, key not given; for P. aeuroginosa % Activity index: gentamicin = 100
HepG-2 [2] = assay: Apoptosis analysis, FITC Annexin-V/PI kit; type: cell-based; details: HepG-2 treated with 10b at 13.81 μM
From the text: This was accompanied by significant elevations in the percentage of the AnxV-FITC apoptotic cells in both the early (from 0.36 to 14.52%) and late (from 0.21 to 24.45%) apoptotic phases, compared to the control (Fig. 5 and 6). Accordingly, we can confirm the exact mechanism of the anticancer activity of 10b to be due to the programmed apoptosis pathway.
This was done using the FITC Annexin-V/PI kit.[49]

MCF-7 = assay: Anti-proliferative activity, SRB colorimetric assay; type: cell-based; details: for IC50: Homo sapiens, MCF7, MCF-7 cancer cell line, SRB assay, read-out: Cell lines (IC50 μM) MCF-7; for anti-proliferative activity against MCF-7, in words: authors' grading of Table 1 values, key not given

Chain of VEGFR-2 (P35968 20-1356): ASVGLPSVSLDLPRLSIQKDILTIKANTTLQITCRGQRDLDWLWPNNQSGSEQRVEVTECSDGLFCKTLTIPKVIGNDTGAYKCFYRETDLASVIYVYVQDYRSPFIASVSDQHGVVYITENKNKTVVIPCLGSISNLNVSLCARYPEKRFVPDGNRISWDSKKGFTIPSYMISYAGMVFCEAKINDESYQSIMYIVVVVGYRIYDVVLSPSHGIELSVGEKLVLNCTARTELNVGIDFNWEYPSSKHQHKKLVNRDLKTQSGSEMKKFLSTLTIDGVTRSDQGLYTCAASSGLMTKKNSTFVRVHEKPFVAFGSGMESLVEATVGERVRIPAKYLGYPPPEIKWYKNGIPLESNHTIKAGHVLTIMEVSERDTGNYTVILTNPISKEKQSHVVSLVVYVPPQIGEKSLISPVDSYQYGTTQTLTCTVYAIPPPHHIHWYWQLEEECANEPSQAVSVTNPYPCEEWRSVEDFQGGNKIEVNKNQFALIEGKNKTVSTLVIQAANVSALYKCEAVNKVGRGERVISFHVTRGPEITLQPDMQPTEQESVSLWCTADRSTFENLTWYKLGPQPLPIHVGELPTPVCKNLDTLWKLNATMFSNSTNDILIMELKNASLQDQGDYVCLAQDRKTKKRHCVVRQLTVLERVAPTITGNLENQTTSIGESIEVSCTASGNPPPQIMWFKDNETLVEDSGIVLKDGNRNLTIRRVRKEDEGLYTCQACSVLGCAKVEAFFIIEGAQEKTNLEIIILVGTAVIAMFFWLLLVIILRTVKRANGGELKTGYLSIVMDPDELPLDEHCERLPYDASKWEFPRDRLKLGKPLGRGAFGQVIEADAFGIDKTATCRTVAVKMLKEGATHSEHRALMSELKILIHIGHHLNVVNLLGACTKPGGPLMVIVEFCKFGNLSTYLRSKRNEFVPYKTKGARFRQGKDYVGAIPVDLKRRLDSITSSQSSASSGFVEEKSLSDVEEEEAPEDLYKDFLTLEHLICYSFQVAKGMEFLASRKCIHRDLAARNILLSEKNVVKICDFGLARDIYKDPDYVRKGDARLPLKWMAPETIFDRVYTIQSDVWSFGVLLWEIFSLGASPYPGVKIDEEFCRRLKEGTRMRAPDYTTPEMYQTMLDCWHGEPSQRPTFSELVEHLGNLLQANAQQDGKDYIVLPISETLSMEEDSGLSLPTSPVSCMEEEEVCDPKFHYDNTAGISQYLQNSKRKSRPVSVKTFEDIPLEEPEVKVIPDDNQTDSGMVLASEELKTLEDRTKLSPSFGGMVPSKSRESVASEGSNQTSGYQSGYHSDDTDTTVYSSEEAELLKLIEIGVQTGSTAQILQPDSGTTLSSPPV
Chain of EGFR (P00533 25-1210): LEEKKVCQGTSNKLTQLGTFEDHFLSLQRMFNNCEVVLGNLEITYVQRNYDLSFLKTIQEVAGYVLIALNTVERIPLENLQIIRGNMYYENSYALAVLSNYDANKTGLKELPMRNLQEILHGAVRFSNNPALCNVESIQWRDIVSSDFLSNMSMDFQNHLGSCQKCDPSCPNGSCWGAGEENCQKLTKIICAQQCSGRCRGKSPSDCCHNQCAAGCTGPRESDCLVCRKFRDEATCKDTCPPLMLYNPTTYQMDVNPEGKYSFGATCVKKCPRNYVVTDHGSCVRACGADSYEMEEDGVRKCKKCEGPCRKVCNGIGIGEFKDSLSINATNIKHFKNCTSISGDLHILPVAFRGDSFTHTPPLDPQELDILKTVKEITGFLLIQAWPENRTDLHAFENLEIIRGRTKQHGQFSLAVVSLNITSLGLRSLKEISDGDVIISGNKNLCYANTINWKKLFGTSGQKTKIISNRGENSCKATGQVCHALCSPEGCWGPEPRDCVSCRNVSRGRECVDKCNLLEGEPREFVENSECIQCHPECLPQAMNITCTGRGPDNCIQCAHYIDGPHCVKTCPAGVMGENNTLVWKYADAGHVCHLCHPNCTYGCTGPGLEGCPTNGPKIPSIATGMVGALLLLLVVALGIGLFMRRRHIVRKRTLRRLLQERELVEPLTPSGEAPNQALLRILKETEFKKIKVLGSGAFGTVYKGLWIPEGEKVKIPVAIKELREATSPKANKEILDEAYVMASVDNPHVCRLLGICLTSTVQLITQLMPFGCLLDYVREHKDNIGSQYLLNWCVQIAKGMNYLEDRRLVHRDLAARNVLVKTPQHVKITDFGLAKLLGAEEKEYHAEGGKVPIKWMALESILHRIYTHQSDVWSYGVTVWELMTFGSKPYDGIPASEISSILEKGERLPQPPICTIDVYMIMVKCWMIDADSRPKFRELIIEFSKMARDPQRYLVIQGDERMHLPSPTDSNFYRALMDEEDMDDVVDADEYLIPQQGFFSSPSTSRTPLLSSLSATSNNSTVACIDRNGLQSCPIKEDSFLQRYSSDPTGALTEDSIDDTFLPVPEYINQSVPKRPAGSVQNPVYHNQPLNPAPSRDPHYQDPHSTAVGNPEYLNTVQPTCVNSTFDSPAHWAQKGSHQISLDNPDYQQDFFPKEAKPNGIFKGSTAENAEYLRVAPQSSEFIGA

| Structure (SMILES) | IC50 (EGFR) [nM] | C. albicans Diameter of inhibition zone (mm) (C. albicans) | antimicrobial activity with C. albicans, in words (C. albicans) | C. albicans % Activity index (C. albicans) [%] | B. subtilis Diameter of inhibition zone (mm) (B. subtilis) | antimicrobial activity with B. subtilis, in words (B. subtilis) | B. subtilis % Activity index (B. subtilis) [%] | IC50 (VEGFR-2) [nM] | A. flavus Diameter of inhibition zone (mm) (A. flavus) | antimicrobial activity with A. flavus, in words (A. flavus) | A. flavus % Activity index (A. flavus) [%] | IC50 (HepG-2 [1]) [µM] | anti-proliferative activity against HepG-2, in words (HepG-2 [1]) | S. aureus Diameter of inhibition zone (mm) (S. aureus) | antimicrobial activity with S. aureus, in words (S. aureus) | S. aureus % Activity index (S. aureus) [%] | E. coli Diameter of inhibition zone (mm) (E. coli) | antimicrobial activity with E. coli, in words (E. coli) | E. coli % Activity index (E. coli) [%] | P. aeuroginosa Diameter of inhibition zone (mm) (P. aeuroginosa) | also measured |
| --- | --- | --- | --- | --- | --- | --- | --- | --- | --- | --- | --- | --- | --- | --- | --- | --- | --- | --- | --- | --- | --- |
| NC(=S)n1nc(-c2ccc(Cl)c(Cl)c2)cc1-c1cccs1 [10b, 3-(3,4-dichlorophenyl)-5-(thiophen-2-yl)-1H-pyrazole-1-carbothioamide] | 161 | 20 | very strong | 71.4 | 17 | very strong | 77.3 | 141 | 14 | moderate | 53.8 | 13.8 ± 1.1 | strong | 12 | very strong | 66.7 | 9 | moderate | 42.8 | 13 | fold change of S phase population compared to control (HepG2): 1.37 fold; antimicrobial activity with P. aeuroginosa, in words (P. aeuroginosa): very strong; P. aeuroginosa % Activity index (P. aeuroginosa): 68.4%; AnxV-FITC apoptotic cells, late apoptotic phase (HepG-2 [2]; control 0.21%): 24.45%; total apoptosis percentage (HepG-2 [2]; control 1.75): 44.26%; AnxV-FITC apoptotic cells, early apoptotic phase (HepG-2 [2]; control […]): 14.52%; IC50 (MCF-7): 23.2 ± 1.8 µM; anti-proliferative activity against MCF-7, in words (MCF-7): moderate |
| Oc1ccc(C2=NNC(c3cccs3)C2)cc1 (stereo not drawn) [7a, 4-(5-(thiophen-2-yl)-4,5-dihydro-1H-pyrazol-3-yl)phenol] | 266 | 23 | very strong | 82.1 | 19 | very strong | 86.4 | 509 | 18 | very strong | 69.2 | 8.13 ± 0.6 | very strong | 15 | very strong | 83.3 | 12 | very strong | 57.1 | 17 | melting point: 100 to 102 °C; antimicrobial activity with P. aeuroginosa, in words (P. aeuroginosa): very strong; P. aeuroginosa % Activity index (P. aeuroginosa): 89.5%; IC50 (MCF-7): 3.54 ± 0.2 µM; anti-proliferative activity against MCF-7, in words (MCF-7): very strong |
| O=C(SC(=S)N1N=C(c2ccc(O)cc2)CC1c1cccs1)c1ccccc1 (stereo not drawn) [18a, Benzoic 3-(4-hydroxyphenyl)-5-(thiophen-2-yl)-4,5-dihydro-1H-pyrazole-1-carbothioic thioanhydride] | 436 | 20 | very strong | 71.4 | 17 | very strong | 77.3 | 344 | 16 | very strong | 61.5 | 12.9 ± 1 | strong | 13 | very strong | 72.2 | 10 | moderate | 47.6 | 15 | melting point: 240 °C; antimicrobial activity with P. aeuroginosa, in words (P. aeuroginosa): very strong; P. aeuroginosa % Activity index (P. aeuroginosa): 78.9%; IC50 (MCF-7): 6.92 ± 0.5 µM; anti-proliferative activity against MCF-7, in words (MCF-7): very strong |
